US6352958B1, “Cycloimido-substituted benzofused heterocyclic herbicides” (FMC Corporation, priority 1997, dated 2002)

Experiments:
Assay type in all cases: in vivo
[1] = system: soybean (Glycine max var. Winchester); experiment: Preemergence herbicidal activity, soybean; details: Rate of Application 0.3 Kg/Ha, examined after 12-17 days
[2] = system: wheat (Triticum aestivum var. Lew); experiment: Preemergence herbicidal activity, wheat; details: Rate of Application 0.3 Kg/Ha, examined after 12-17 days
[3] = system: field corn (Zea mays var. Pioneer 3732); experiment: Preemergence herbicidal activity, corn; details: Rate of Application 0.3 Kg/Ha, examined after 12-17 days
[4] = system: velvetleaf (Abutilon theophrasti); experiment: Preemergence herbicidal activity, velvetleaf; details: Rate of Application 0.3 Kg/Ha, examined after 12-17 days
[5] = system: morningglory (Ipomea lacunosa or Ipomea hederacea); experiment: Preemergence herbicidal activity, morningglory; details: Rate of Application 0.3 Kg/Ha, examined after 12-17 days
[6] = system: common chickweed (Stellaria media); experiment: Preemergence herbicidal activity, chickweed; details: Rate of Application 0.3 Kg/Ha, examined after 12-17 days
[7] = system: common cocklebur (Xanthium strumarium L.); experiment: Preemergence herbicidal activity, cocklebur; details: Rate of Application 0.3 Kg/Ha, examined after 12-17 days
[8] = system: blackgrass (Aloepecurus myosuroides); experiment: Preemergence herbicidal activity, blackgrass; details: Rate of Application 0.3 Kg/Ha, examined after 12-17 days
[9] = system: green foxtail (Setaria viridis); experiment: Preemergence herbicidal activity, green foxtail; details: Rate of Application 0.3 Kg/Ha, examined after 12-17 days
[10] = system: Johnsongrass (Sorghum halepense); experiment: Preemergence herbicidal activity, johnsongrass; details: Rate of Application 0.3 Kg/Ha, examined after 12-17 days
[11] = system: soybean (Glycine max var. Winchester); experiment: Postemergence herbicidal activity, soybean; details: rate of application 0.3 Kg/Ha, rated after 12-17 days
[12] = system: wheat (Triticum aestivum var. Lew); experiment: Postemergence herbicidal activity, wheat; details: rate of application 0.3 Kg/Ha, rated after 12-17 days
[13] = system: field corn (Zea mays var. Pioneer 3732); experiment: Postemergence herbicidal activity, corn; details: rate of application 0.3 Kg/Ha, rated after 12-17 days
[14] = system: velvetleaf (Abutilon theophrasti); experiment: Postemergence herbicidal activity, velvetleaf; details: rate of application 0.3 Kg/Ha, rated after 12-17 days
[15] = system: morningglory (Ipomea lacunosa or Ipomea hederacea); experiment: Postemergence herbicidal activity, morningglory; details: rate of application 0.3 Kg/Ha, rated after 12-17 days
[16] = system: common chickweed (Stellaria media); experiment: Postemergence herbicidal activity, chickweed; details: rate of application 0.3 Kg/Ha, rated after 12-17 days
[17] = system: common cocklebur (Xanthium strumarium L.); experiment: Postemergence herbicidal activity, cocklebur; details: rate of application 0.3 Kg/Ha, rated after 12-17 days
[18] = system: blackgrass (Aloepecurus myosuroides); experiment: Postemergence herbicidal activity, blackgrass; details: rate of application 0.3 Kg/Ha, rated after 12-17 days
[19] = system: green foxtail (Setaria viridis); experiment: Postemergence herbicidal activity, green foxtail; details: rate of application 0.3 Kg/Ha, rated after 12-17 days
[20] = system: Johnsongrass (Sorghum halepense); experiment: Postemergence herbicidal activity, johnsongrass; details: rate of application 0.3 Kg/Ha, rated after 12-17 days

Row | Structure (SMILES) | PREEMERGENCE HERBICIDAL ACTIVITY (% CONTROL) SOY [1] | PREEMERGENCE HERBICIDAL ACTIVITY (% CONTROL) WHT [2] | PREEMERGENCE HERBICIDAL ACTIVITY (% CONTROL) CRN [3] | PREEMERGENCE HERBICIDAL ACTIVITY (% CONTROL) ABUTH [4] | PREEMERGENCE HERBICIDAL ACTIVITY (% CONTROL) IPOSS [5] | PREEMERGENCE HERBICIDAL ACTIVITY (% CONTROL) STEME [6] | PREEMERGENCE HERBICIDAL ACTIVITY (% CONTROL) XANPE [7] | PREEMERGENCE HERBICIDAL ACTIVITY (% CONTROL) ALOMY [8] | PREEMERGENCE HERBICIDAL ACTIVITY (% CONTROL) SETVI [9] | PREEMERGENCE HERBICIDAL ACTIVITY (% CONTROL) SORHA [10] | Postemergence herbicidal activity (% control) SOY [11] | Postemergence herbicidal activity (% control) WHT [12] | Postemergence herbicidal activity (% control) CRN [13] | Postemergence herbicidal activity (% control) ABUTH [14] | Postemergence herbicidal activity (% control) IPOSS [15] | Postemergence herbicidal activity (% control) STEME [16] | Postemergence herbicidal activity (% control) XANPE [17] | Postemergence herbicidal activity (% control) ALOMY [18] | Postemergence herbicidal activity (% control) SETVI [19] | Postemergence herbicidal activity (% control) SORHA [20]
1 | CCCc1nc2c(-n3c(=O)cc(C(F)(F)F)n(C)c3=O)c(F)cc(Cl)c2o1 [Compound 26] | 100% | 90% | 90% | 100% | 100% | 100% | 100% | 95% | 100% | 100% | 96% | 60% | 80% | 100% | 100% | 80% | 100% | 80% | 100% | 80%
2 | Cn1c(C(F)(F)F)cc(=O)n(-c2c(F)cc(Cl)c3oc(C(C)(C)C)nc23)c1=O [Compound 30] | 100% | 100% | 95% | 100% | 100% | 100% | 90% | 100% | 100% | 100% | 95% | 80% | 90% | 100% | 100% | 100% | 100% | 90% | 100% | 100%
3 | CNC(=O)OC(C)c1cc2c(Cl)cc(F)c(-n3c(=O)cc(C(F)(F)F)n(C)c3=O)c2o1 (stereo not drawn) [Compound 249] | 100% | 80% | 95% | 100% | 100% | 100% | 90% | 80% | 10% | 100% | 95% | 80% | 100% | 100% | 100% | 100% | 100% | 100% | 100% | –
4 | Cn1c(C(F)(F)F)cc(=O)n(-c2ccc(Cl)c3cc(-c4ccccc4)oc23)c1=O [Compound 264] | 0% | 0% | 10% | 20% | 0% | 20% | 30% | 0% | 10% | 10% | 50% | 20% | 50% | 40% | 40% | 0% | 30% | 0% | – | 20%
